Results published in patent US11298367B2, “Prodrugs of substituted triazole derivatives and uses thereof” (Bayer Aktiengesellschaft, priority 2017, dated 2022).
Read-outs that look alike come from different tables or passages of the source.

Experiments:
Assay type in all cases: cell-based
human V1a receptor = biological target: T1, human V1a receptor (Homo sapiens, UniProt P37288); assay: Cellular in vitro assay for vasopressin receptor activity (V1a, aequorin luminescence); settings: for IC50: CHO cell line with human V1a receptor, [Arg8]-vasopressin at EC50, values are for the prodrug as such, read-out: IC50 hV1a; for ratio IC50 hV2/hV1a: selectivity ratio hV2/hV1a
T1 construct: expressed in transfected cells; host or cells: CHO K1 (Chinese hamster ovary), also stably transfected with a modified aequorin

human V2 receptor = biological target: T2, human V2 receptor (Homo sapiens, UniProt P30518); assay: Cellular in vitro assay for vasopressin receptor activity (V2, CRE-luciferase); settings: CHO cell line with human V2 receptor, [Arg8]-vasopressin at EC50; values are for the prodrug as such; read-out: IC50 hV2
T2 construct: expressed in transfected cells; host or cells: CHO K1 cells expressing firefly luciferase under a CRE-responsive promoter
Method in brief: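 CHO K1 cells stably expressing human V2 receptor with CRE-driven firefly luciferase; compounds added together with [Arg8]-vasopressin at EC50 concentration, 3 h at 37 °C. Luminescence read after Triton lysis and luciferin addition; IC50 reflects antagonism of agonist-induced signal, measured on prodrug form stable under assay conditions.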

human platelets = assay: Inhibition of vasopressin induced aggregation of human platelets; settings: human platelet rich plasma, AVP 100 nM
Description: B-5. Inhibition of Vasopressin Induced Aggregation of Human Platelets for Verification of Prodrug Conversion into Drug
Human platelets endogenously express the V1a receptor. […] Therefore, platelets enriched from human blood may serve as a V1a expressing tissue for pharmacological studies with vasopressin antagonists.
To verify the conversion of prodrugs into the respective drugs, the prodrugs are incubated with and without alkaline phosphatase. Cleavage of the phosphate moiety by alkaline phosphatase converts the prodrug into the drug. As prodrug and underlying respective drug show different IC50 values, the value of the prodrug after alkaline phosphatase treatment resembles the IC50 of the respective drug.
100 μl of test compound at a concentration of 100 μM are incubated for 15 min with 500 units alkaline phosphatase at 37° C. in modified Tyrode buffer (134 mM NaCl, […], 0.34 mM NaH2PO4*H2O, 2.9 mM KCl, 5 mM HEPES, 5 mM Glucose) and stored at 4° C. until further use in the platelet aggregation assay.
Platelet-rich plasma (PRP) is obtained by centrifugation of the blood sample at 140 g for 20 min at room temperature. The resulting pellet is discarded and the PRP further centrifuged (11.000 rpm, 1 min) to produce platelet-poor plasma (PPP). Platelet aggregation is measured turbidimetrically using an aggregometer (APACT 4). The reaction is followed by monitoring changes in light transmission on 178 μL PRP aliquots, under continuous stirring at 37° C., against PPP control. Various concentrations of vasopressin antagonists (in 2 μL) are added to PRP 5 min before the addition of 20 μL AVP (final concentration 100 nM). The inhibitory effects of the compounds are determined by measuring the maximal amplitude of the aggregation curve compared with the control response. IC50 values are calculated on the basis of a concentration-response inhibition curve by an iterative nonlinear regression program. All values are expressed as mean values (Table 3A).

[1] = with alkaline phosphatase, read-out: IC50 with AP
[2] = without alkaline phosphatase, read-out: IC50 without AP

T2 sequence (P30518 whole entry): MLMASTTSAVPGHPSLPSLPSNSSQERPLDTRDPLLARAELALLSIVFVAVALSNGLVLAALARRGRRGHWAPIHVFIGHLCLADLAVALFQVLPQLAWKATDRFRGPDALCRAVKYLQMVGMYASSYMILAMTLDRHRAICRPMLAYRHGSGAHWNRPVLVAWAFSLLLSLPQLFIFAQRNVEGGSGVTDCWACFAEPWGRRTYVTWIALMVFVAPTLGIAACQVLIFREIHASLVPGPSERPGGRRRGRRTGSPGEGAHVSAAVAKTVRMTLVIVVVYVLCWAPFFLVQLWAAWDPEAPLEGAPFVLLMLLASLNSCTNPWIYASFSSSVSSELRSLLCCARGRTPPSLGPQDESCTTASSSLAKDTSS
T1 sequence (P37288 whole entry): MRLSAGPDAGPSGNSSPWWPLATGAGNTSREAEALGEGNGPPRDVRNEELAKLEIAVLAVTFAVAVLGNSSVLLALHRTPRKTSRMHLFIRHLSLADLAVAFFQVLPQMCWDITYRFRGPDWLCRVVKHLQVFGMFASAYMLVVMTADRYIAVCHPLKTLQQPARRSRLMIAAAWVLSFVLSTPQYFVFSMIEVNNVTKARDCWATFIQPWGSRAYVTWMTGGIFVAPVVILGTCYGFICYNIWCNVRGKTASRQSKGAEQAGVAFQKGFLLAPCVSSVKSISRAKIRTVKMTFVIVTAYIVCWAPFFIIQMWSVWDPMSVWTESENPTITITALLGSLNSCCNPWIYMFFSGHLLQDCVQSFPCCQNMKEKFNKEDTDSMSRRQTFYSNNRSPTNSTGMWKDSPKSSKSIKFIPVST

Compound | IC50 (human V1a receptor) | ratio IC50 hV2/hV1a (human V1a receptor) | IC50 (human V2 receptor) | IC50 (human platelets; [1]) | IC50 (human platelets; [2])
NC(=O)c1nc(Cn2nc(-c3ccc(Cl)cc3)n(C[C@H](OP(=O)(O)O)C(F)(F)F)c2=O)nn1-c1ncccc1C(F)(F)F [Example 1, (2S)-3-[1-({5-Carbamoyl-1-[3-(trifluoromethyl)pyridin-2-yl]-1H-1,2,4-triazol-3-yl}methyl)-3-(4-chlorophenyl)-5-oxo-1,5-dihydro-4H-1,2,4-triazol-4-yl]-1,1,1-trifluoropropan-2-yl Dihydrogen Phosphate] | 15.7 nM | 12.3 | 193 nM | 12.7 nM | 145 nM
NC(=O)c1nc(Cn2nc(-c3ccc(Cl)cc3)n(C[C@H](O)C(F)(F)F)c2=O)nn1-c1ncccc1C(F)(F)F [Example 4A, 3-({3-(4-Chlorophenyl)-5-oxo-4-[(2S)-3,3,3-trifluoro-2-hydroxypropyl]-4,5-dihydro-1H-1,2,4-triazol-1-yl}methyl)-1-[3-(trifluoromethyl)pyridin-2-yl]-1H-1,2,4-triazole-5-carboxamide] |  | 141.0 |  | 10.2 nM | 21.1 nM
NC(=O)c1nc(Cn2nc(-c3ccc(Cl)cc3)n(C[C@H](OP(=O)(O)O)C(F)(F)F)c2=O)nn1-c1ccccc1C(F)(F)F [Example 10, (2S)-3-[1-({5-Carbamoyl-1-[2-(trifluoromethyl)phenyl]-1H-1,2,4-triazol-3-yl}methyl)-3-(4-chlorophenyl)-5-oxo-1,5-dihydro-4H-1,2,4-triazol-4-yl]-1,1,1-trifluoropropan-2-yl Dihydrogen Phosphate] | 10.6 nM | 4.4 | 47 nM |  | 
NC(=O)c1nc(Cn2nc(-c3ccc(Cl)cc3)n(C[C@H](OP(=O)(O)O)C(F)(F)F)c2=O)nn1-c1ncccc1Cl [Example 17, (2S)-3-[1-{[5-Carbamoyl-1-(3-chloropyridin-2-yl)-1H-1,2,4-triazol-3-yl]methyl}-3-(4-chloro-phenyl)-5-oxo-1,5-dihydro-4H-1,2,4-triazol-4-yl]-1,1,1-trifluoropropan-2-yl Dihydrogen Phosphate] | 9.8 nM | 13.3 | 130 nM |  | 
